In the assay the target is G-protein coupled receptor 6 (Homo sapiens, UniProt P46095). Kind of assay: Modulator activity at GPR6 receptor (unknown origin) expressed in CHO-K1 cells assessed as inhibition of constitutive cAMP activity incubated for 45 mins by Eu-cAMP tracer based HTRF Ultra cAMP assay. The assay is classed as functional, cell-based.
Chain of G-protein coupled receptor 6 (P46095 whole entry): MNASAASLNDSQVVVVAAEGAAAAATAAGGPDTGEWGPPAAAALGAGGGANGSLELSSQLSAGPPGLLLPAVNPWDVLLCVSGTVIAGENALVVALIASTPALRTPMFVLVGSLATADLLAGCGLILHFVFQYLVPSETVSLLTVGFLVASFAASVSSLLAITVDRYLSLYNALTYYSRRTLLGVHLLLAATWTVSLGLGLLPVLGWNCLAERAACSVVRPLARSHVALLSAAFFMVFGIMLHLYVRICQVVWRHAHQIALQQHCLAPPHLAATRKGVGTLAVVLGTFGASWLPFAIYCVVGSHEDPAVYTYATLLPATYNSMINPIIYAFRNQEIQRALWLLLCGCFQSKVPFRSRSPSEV

In general, EC50 refers to the concentration that produces a half-maximal response. For `Cc1nc(C(=O)Nc2cc(C#N)ccc2N2CCC(Oc3ccc(F)cc3F)CC2)no1`, the EC50 is 2000 nM.
Then `N#Cc1ccc(N2CCC(Oc3ccc(F)cc3F)CC2)c(NC(=O)c2cccn(Cc3ccccc3)c2=O)c1`, with 2000 nM.
Then `Cn1cccc(C(=O)Nc2cc(C#N)ccc2N2CCC(Oc3cc(F)cc(F)c3)CC2)c1=O`, with 2000 nM.

The values above are taken from ChEMBL document CHEMBL4418317, “Piperidinyl- and piperazinyl-substituted heteroaromatic carboxamides as modulators of gpr6” (2018).
